Where a chain is given by its changes, count along the chain named.
Legend:
Assay type in all cases: binding
hMETTL6 [1] = molecular target: T1, hMETTL6 (Homo sapiens, UniProt Q8TCB7, C93S); test: isothermal titration calorimetry
T1 construct: gene METTL6
T1 sequence (Q8TCB7 1-284 C93S): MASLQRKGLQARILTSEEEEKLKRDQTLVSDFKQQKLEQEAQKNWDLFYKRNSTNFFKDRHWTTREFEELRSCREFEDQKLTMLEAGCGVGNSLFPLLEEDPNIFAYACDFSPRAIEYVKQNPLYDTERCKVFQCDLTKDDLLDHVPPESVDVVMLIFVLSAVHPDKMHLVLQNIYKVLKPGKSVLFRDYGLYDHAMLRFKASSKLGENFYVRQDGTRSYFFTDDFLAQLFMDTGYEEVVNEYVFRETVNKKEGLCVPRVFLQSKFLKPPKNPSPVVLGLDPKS

hMETTL6 [2] = molecular target: T2, hMETTL6 (Homo sapiens, UniProt Q8TCB7, D110A); test: isothermal titration calorimetry; settings: pH 8.0, 150 mM NaCl, 1 mM DTT, 25 °C; mutant partly aggregated, structural integrity disrupted
T2 construct: gene METTL6
T2 sequence (Q8TCB7 1-284 D110A): T1 sequence (Q8TCB7 1-284 C93S) with S93C, D110A

hMETTL6 [3] = molecular target: T3, hMETTL6 (Homo sapiens, UniProt Q8TCB7); test: isothermal titration calorimetry
T3 construct: gene METTL6
T3 sequence (Q8TCB7 1-284): T1 sequence (Q8TCB7 1-284 C93S) with S93C

hMETTL6 [4] = molecular target: T4, hMETTL6 (Homo sapiens, UniProt Q8TCB7, F111L); test: isothermal titration calorimetry
T4 construct: gene METTL6
T4 sequence (Q8TCB7 1-284 F111L): T1 sequence (Q8TCB7 1-284 C93S) with S93C, F111L

hMETTL6 [5] = molecular target: T5, hMETTL6 (Homo sapiens, UniProt Q8TCB7, E85Q); test: isothermal titration calorimetry
T5 construct: gene METTL6
T5 sequence (Q8TCB7 1-284 E85Q): T1 sequence (Q8TCB7 1-284 C93S) with E85Q, S93C

hMETTL6 [6] = molecular target: T6, hMETTL6 (Homo sapiens, UniProt Q8TCB7, H61N); test: isothermal titration calorimetry
T6 construct: gene METTL6
T6 sequence (Q8TCB7 1-284 H61N): T1 sequence (Q8TCB7 1-284 C93S) with H61N, S93C

hMETTL6 [7] = molecular target: T7, hMETTL6 (Homo sapiens, UniProt Q8TCB7, Y49F); test: isothermal titration calorimetry
T7 construct: gene METTL6
T7 sequence (Q8TCB7 1-284 Y49F): T1 sequence (Q8TCB7 1-284 C93S) with Y49F, S93C

hMETTL6 [8] = molecular target: T3, hMETTL6; test: X-ray crystal structure, […] Å; settings: protein mixed with 2 mM SAH; active site; ammonium sulfate, pH 5.6

Row | Kd (hMETTL6 [1]) | Kd (hMETTL6 [3]) | Kd (hMETTL6 [4]) | Kd (hMETTL6 [5]) | Kd (hMETTL6 [6]) | Kd (hMETTL6 [7]) | SMILES | KD (hMETTL6 [2]) | X-ray crystal structure, 1.9 Å (hMETTL6 [8])
1 | 2250 nM | ~2700 nM | 8.05 µM | 87.5 µM | 3.11 µM | 9.5 µM | C[S+](CC[C@H](N)C(=O)O)C[C@H]1O[C@@H](n2cnc3c(N)ncnc32)[C@H](O)[C@@H]1O (some centres unmarked) [SAM] | the D110A mutation almost eliminated the association capacity of the enzyme | –
2 | – | – | – | – | – | – | Nc1ncnc2c1ncn2[C@@H]1O[C@H](CSCC[C@H](N)C(=O)O)[C@@H](O)[C@H]1O [SAH] | – | we solved the structure of hMETTL6 in complex with SAH at a high resolution
